Results published in patent US10869846B2, “N-acetylcysteine amide (NAC amide) in the treatment of diseases and conditions associated with oxidative stress” (SENTIENT LIFESCIENCES, INC., priority 2005, dated 2020).
Several values for one entry are separate records, joined by “and”; a condition that tells them apart may be missing. Equal values may be shown once. Marks after values point to notes of the source that are not given here.

Columns and labels:
Format in all cases: in vivo, rat
Sprague Dawley rats [1] = test: GSH and CYS levels in tissues after 6Gy total-body x-ray radiation; conditions: for CYS level / GSH level / CYS Mean / GSH Mean: 6Gy total-body x-ray, 500 mg/kg orally; for CYS level / GSH level: individual animals; for CYS Mean / GSH Mean: n = 3
Procedure: (§1) Animal studies: The irradiation of rats was performed at the Radiation Oncology Department of the Phelps County Regional Medical Center in Rolla, Mo., using a 16 MeV beam generated by a Varian linear accelerator, model Clinac 1800, and in accordance with the standards of humane laboratory animal protocols. A 20×20 or 25×25 cm field was used and output factors were checked once a week. Twelve animals were divided into 4 groups each containing 3 animals (Control, XRT, NAC amide+XRT and NAC+XRT). The radiation (XRT) control received whole body irradiation by 6 Gy of 16 MeV electrons. The NAC amide+XRT group received 500 mg/kg/day NAC amide immediately before irradiation and for three days after until sacrifice. The rats were anesthetized and heparinized blood was collected via cardiopuncture. Following sacrifice, liver, lung, brain and spleen were removed and stored at −70° C. until homogenization.
(§2) All experiments were performed using adult Albino SASCO Sprague Dawley female rats weighing about 250 g, which were purchased from Charles River Laboratories Inc. (Portage, Mich.). Twelve rats were shipped in paper crates (4 in each crate). Rats were delivered with a certificate including serological, bacteriological, pathological parasitological information. They were divided into 4 cages (3 rats in each cage) and kept in a temperature controlled (20° C.) room equipped to maintain a 12 h light-dark cycle. Standard rat chow (Purina rat chow) and tap water were supplied in individual glass bottle and given ad libitum. Water was changed daily. Weights of the animal were taken before giving the NAC amide treatment solution and amount of food eaten and water consumed was not measured because NAC amide was given orally but not in the drinking water or food.
(§3) NAC amide was provided by Novetide Ltd (Haifa Bay, Israel) including certificate of analysis and MSDS (lot #40233-64). NAC amide feeding solution was prepared freshly each day right before the administration by weighing 1.25 g NAC amide solid sample (Type HR-120 electronic balance, A&D Company limited, Japan. S/N: 12202464) and adding into 10 ml PBS solution and put on ice. One ml of this solution was administrated (gavaged) per rat orally by using animal feeding biomedical needles and 3 ml BD Luer-Lok Tip syringes. Rats received one-dose total-body 6 Gy/16 MeV x-ray radiation and 3 rats in each group were held in a covered bucket and received radiation at the same time. Each day at the same time, 500 mg/Kg body weight of NAC amide was administrated to the animals.
For GSH and CYS levels, 250 μL tissue homogenate was used to react with 750 μL NPM solution, therefore, the total volume was 1000 μL.
Oxidative Stress Parameters in Animals: After the blood samples were drawn, the animals were perfused by a cold antioxidant buffer first and then liver, brain and kidney samples were collected aseptically, rinsed in ice-cold saline and placed in petri dishes maintained on ice. The tissue samples kept at −70° C. for the GSH, GSSG, and MDA determinations were made.
Glutathione (GSH) and Glutathione Disulfide (GSSG) Determination: Cells or tissue samples were homogenized on ice and derivatized with N-(1-pyrenyl)-maleimide (NPM). The derivatized samples were injected onto a 3 μm C18 column (Column Engineering) in a reverse phase HPLC system with a mobile phase of 35% water, 65% acetonitrile containing 1 mL/L of acetic acid and o-phosphoric acid (R. Winters, et al., Anal. Biochem., 227:14-21 (1995) and H. H. Draper et al., Free Rad. Biol. Med., 15:353-363 (1993)). Malondialdehyde (MDA) determinations were made as described in J. Gutteridge, Anal. Biochem., 69: 518-526 (1975).

Sprague Dawley rats [2] = test: Catalase activities in tissues after 6Gy total-body x-ray radiation; conditions: 500 mg/kg orally; for Catalase level: individual animals; for Catalase Mean: n = 3
Procedure: as §1, §2, §3
In assay solution, k(enzyme activity)= 1/60*ln(A0/A60)*(Total Volume of reaction/volume of sample) A0—Absorbance at 0 second A60—Absorbance at 60 second In sample, K(specific activity)=k/protein concentration.
Enzyme Activity Assays: Catalase (CAT) activity was determined spectrophotometrically and was expressed in kunits/mg protein and kunits/10^6 cells as described by M. Bradford, Anal. Biochem., 72:248-256 (1976).

Sprague Dawley rats [3] = test: as above; conditions: KIDNEY, 500 mg/kg orally; for Catalase level: individual animals; for Catalase Mean: n = 3
[4] = BRAIN, listed as AD4, 500 mg/kg
[5] = KIDNEY, listed as AD4, 500 mg/kg
[6] = LIVER, listed as AD4, 500 mg/kg
[7] = PLASMA, listed as AD4, 500 mg/kg

## CC(=O)N[C@@H](CS)C(=O)O [NAC, N-acetylcysteine]
Sprague Dawley rats [1]; BRAIN, 500 mg/kg
  CYS level: 4.16 nmol/mg and 3.76 nmol/mg and 4.47 nmol/mg
  GSH level: 7.32 nmol/mg and 6.74 nmol/mg and 7.15 nmol/mg
Sprague Dawley rats [1]; BRAIN
  CYS Mean: 4.1 nmol/mg
  GSH Mean: 7.0 nmol/mg
Sprague Dawley rats [1]; KIDNEY, 500 mg/kg
  CYS level: 12.23 nmol/mg and 12.16 nmol/mg and 11.03 nmol/mg
  GSH level: 5.95 nmol/mg and 6.44 nmol/mg and 6.33 nmol/mg
Sprague Dawley rats [1]; KIDNEY
  CYS Mean: 11.8** nmol/mg
  GSH Mean: 6.2** nmol/mg
Sprague Dawley rats [1]; LIVER, 500 mg/kg
  CYS level: 1.25 nmol/mg and 1.61 nmol/mg and 1.51 nmol/mg
  GSH level: 15.23 nmol/mg and 16.80 nmol/mg and 16.93 nmol/mg
Sprague Dawley rats [1]; LIVER
  CYS Mean: 1.5 nmol/mg
  GSH Mean: 16.3 nmol/mg
Sprague Dawley rats [1]; LUNG, 500 mg/kg
  CYS level: 1.16 nmol/mg and 2.64 nmol/mg and 2.43 nmol/mg
  GSH level: 5.19 nmol/mg and 7.24 nmol/mg and 4.95 nmol/mg
Sprague Dawley rats [1]; LUNG
  CYS Mean: 1.9 nmol/mg
  GSH Mean: 5.8 nmol/mg
Sprague Dawley rats [1]; PLASMA, 500 mg/kg
  CYS level: 14.64 nmol/mg and 13.75 nmol/mg and 14.36 nmol/mg
  GSH level: 7.08 nmol/mg and 6.18 nmol/mg and 6.27 nmol/mg
Sprague Dawley rats [1]; PLASMA
  CYS Mean: 14.2*** nmol/mg
  GSH Mean: 6.5**/*** nmol/mg
Sprague Dawley rats [1]; after radiation exposure
  GSH levels in tissues: does not increase
Sprague Dawley rats [2]; LIVER, 500 mg/kg
  Catalase level: 75.22 mU/mg and 69.09 mU/mg and 69.00 mU/mg
Sprague Dawley rats [2]; LIVER
  Catalase Mean: 71.11*** mU/mg
Sprague Dawley rats [2]; LUNG, 500 mg/kg
  Catalase level: 2.12 mU/mg and 0.79 mU/mg and 0.48 mU/mg
Sprague Dawley rats [2]; LUNG
  Catalase Mean: 1.13 mU/mg
Sprague Dawley rats [3]; 500 mg/kg
  Catalase level: 5.85 mU/mg and 3.02 mU/mg and 4.36 mU/mg
Sprague Dawley rats [3]
  Catalase Mean: 4.41 mU/mg

## N-acetylcysteine amide [NAC amide]
Sprague Dawley rats [1]; [4]
  CYS level: 4.47 nmol/mg and 4.32 nmol/mg and 4.26 nmol/mg
  GSH level: 7.93 nmol/mg and 7.84 nmol/mg and 6.98 nmol/mg
Sprague Dawley rats [1]; BRAIN
  CYS Mean: 4.4 nmol/mg
  GSH Mean: 7.6** nmol/mg
Sprague Dawley rats [1]; [5]
  CYS level: 16.91 nmol/mg and 11.09 nmol/mg and 10.81 nmol/mg
  GSH level: 4.39 nmol/mg and 6.22 nmol/mg and 5.02 nmol/mg
Sprague Dawley rats [1]; KIDNEY
  CYS Mean: 12.9** nmol/mg
  GSH Mean: 5.2 nmol/mg
Sprague Dawley rats [1]; [6]
  CYS level: 1.51 nmol/mg and 1.53 nmol/mg (2×)
  GSH level: 17.45 nmol/mg and 16.73 nmol/mg and 17.50 nmol/mg
Sprague Dawley rats [1]; LIVER
  CYS Mean: 1.5 nmol/mg
  GSH Mean: 17.2** nmol/mg
Sprague Dawley rats [1]; LUNG, listed as AD4, 500 mg/kg
  CYS level: 1.43 nmol/mg and 1.61 nmol/mg and 0.91 nmol/mg
  GSH level: 5.12 nmol/mg and 5.27 nmol/mg and 6.28 nmol/mg
Sprague Dawley rats [1]; LUNG
  CYS Mean: 1.3 nmol/mg
  GSH Mean: 5.6 nmol/mg
Sprague Dawley rats [1]; [7]
  CYS level: 16.00 nmol/mg and 15.45 nmol/mg and 15.40 nmol/mg
  GSH level: 7.10 nmol/mg and 7.44 nmol/mg and 7.94 nmol/mg
Sprague Dawley rats [1]; PLASMA
  CYS Mean: 15.6** nmol/mg
  GSH Mean: 7.6** nmol/mg
Sprague Dawley rats [1]; after radiation exposure
  thiol levels in plasma and liver: significantly increases
Sprague Dawley rats [2]; [6]
  Catalase level: 69.63 mU/mg and 57.88 mU/mg and 50.33 mU/mg
Sprague Dawley rats [2]; LIVER
  Catalase Mean: 59.28** mU/mg
Sprague Dawley rats [2]; LUNG, listed as AD4, 500 mg/kg
  Catalase level: 1.02 mU/mg and 0.53 mU/mg
Sprague Dawley rats [2]; LUNG, listed as ND4, 500 mg/kg
  Catalase level: 0.50 mU/mg
Sprague Dawley rats [2]; LUNG
  Catalase Mean: 0.68** mU/mg
Sprague Dawley rats [3]; listed as AD4, 500 mg/kg
  Catalase level: 3.89 mU/mg and 3.46 mU/mg and 4.56 mU/mg
Sprague Dawley rats [3]
  Catalase Mean: 3.97** mU/mg
